These results are taken from patent US9334283B2, “CCR1 antagonists and methods of use thereof” (Millennium Pharmaceuticals, Inc., priority 2002, dated 2016).

The test system of test [1] is neutrophil recruitment in response to murine MIP-1α. Briefly: In vivo efficacy model: neutrophil recruitment in response to MIP-1α (MPO activity in skin biopsies). Also noted: species or system guinea pig. As to conditions: for oral bioavailability and efficacy in comparison to the Reference Example: guinea pig, comparison in words; for oral bioavailability and efficacy in comparison to the Reference Example / ED50: oral; for ED50: 30 minutes prior to intradermal murine MIP-1α (100 pmol/site), read-out: Efficacy: Guinea Pig Neutrophil Recruitment (ED50 (mg/kg)). As to the method:
An animal model of neutrophil recruitment in response to MIP-1α was used to evaluate the biological/pharmacodynamic activity of the compounds. Compounds were administered to female Hartley guinea pigs orally (doses ranged from about 0.5 mg/kg to about 5.0 mg/kg) 30 minutes prior to intradermal injections of murine MIP-1α (100 pmol/site) or phosphate buffered saline (PBS). Skin punch biopsies were taken 5 hours later and processed for myeloperoxidase (MPO) measurements. MPO activity was used as an indicator for neutrophil recruitment to the injection site.

Test [2] addresses T1, CCR1 (125I-MIP-1α binding to THP-1 cell membranes) (Homo sapiens, UniProt P32246).
T1 construct: Membranes were prepared from THP-1 cells (ATCC. #TIB202); host or cells: THP-1 cells (membrane preparation)
T1 sequence (P32246 1-355): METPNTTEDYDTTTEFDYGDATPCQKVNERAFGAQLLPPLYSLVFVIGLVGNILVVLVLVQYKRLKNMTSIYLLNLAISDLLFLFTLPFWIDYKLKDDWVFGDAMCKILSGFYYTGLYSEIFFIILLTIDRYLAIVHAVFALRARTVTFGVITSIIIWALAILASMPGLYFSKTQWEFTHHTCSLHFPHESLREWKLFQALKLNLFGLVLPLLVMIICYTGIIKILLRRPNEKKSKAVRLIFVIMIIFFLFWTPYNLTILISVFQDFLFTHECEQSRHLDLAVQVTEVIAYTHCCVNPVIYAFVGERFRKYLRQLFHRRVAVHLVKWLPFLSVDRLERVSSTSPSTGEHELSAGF
Briefly: THP-1 cell membrane 125I-MIP-1α binding assay. As to conditions: 0.1 to 0.2 nM 125I-MIP-1α, 60 min at room temperature, read-out: Inhibition of 125I-MIP-1α Binding to THP-1 Cell Membranes (Ki (nM)). The source says: The activity of compounds of the present invention can be assessed using suitable assays, such as receptor binding assays or chemotaxis assays. For example, as described in the Examples, small molecule antagonists of […] binding have been identified utilizing THP-1 cells membranes. Specifically, a high through-put receptor binding assay, which monitors ^125I-MIP-1α binding to THP-1 cell membranes, was used to identify small molecule antagonists which block binding of MIP-1α. Compounds of the present invention can also be identified by virtue of their ability to inhibit the activation steps triggered by binding of a chemokine (e.g., CCL2 (MCP-1) CCL3 (MIP-1α), CCL4 (MIP-1β), CCL5 (RANTES), CCL7 (MCP-3), CCL8 (MCP-2), CCL13 (MCP-4), CCL14 (HCC-1), CCL15 (Lkn-1), CCL23 (MPIF-1)) to its receptor (CCR-1), such as chemotaxis, integrin activation and granule mediator release. They can also be identified by virtue of their ability to block chemokine (e.g., CCL2 (MCP-1) CCL3 (MIP-1α), CCL4 (MIP-1β), CCL5 (RANTES), CCL7 (MCP-3), CCL8 (MCP-2), CCL13 (MCP-4), CCL14 (HCC-1), CCL15 (Lkn-1), CCL23 (MPIF-1)) induced chemotaxis of, for example, HL-60 cells, T-cells, peripheral blood mononuclear cells or eosinophils.
Membranes were prepared from THP-1 cells (ATCC. #TIB202). Cells were harvested by centrifugation, washed twice with PBS (phosphate-buffered saline), and the cell pellets were frozen at −70 to −85° C. The frozen pellet was thawed in ice-cold lysis buffer consisting of 5 mM HEPES (N-2-hydroxyethylpiperazine-N′-2-ethane-sulfonic acid) pH 7.5, 2 mM EDTA (ethylenediaminetetraacetic acid), 5 μg/ml each aprotinin, leupeptin, and chymostatin (protease inhibitors), and 100 μg/ml PMSF (phenyl methane sulfonyl fluoride—also a protease inhibitor), at a concentration of 1 to 5×10^7 cells/ml. This procedure results in cell lysis. The suspension was mixed well to resuspend all of the frozen cell pellet. Nuclei and cell debris were removed by centrifugation of 400×g for 10 minutes at 4° C. The supernatant was transferred to a fresh tube and the membrane fragments were collected by centrifugation at 25,000×g for 30 minutes at 4° C. The supernatant was aspirated and the pellet was resuspended in freezing buffer consisting of 10 mM HEPES pH 7.5, 300 mM sucrose, 1 μg/ml each aprotinin, leupeptin, and chymostatin, and 10 μg/ml PMSF (approximately 0.1 ml per each 10^8 cells). All clumps were resolved using a minihomogenizer, and the total protein concentration was determined using a protein assay kit (Bio-Rad, Hercules, Calif., cat #500-0002). […]
Binding Assays utilized the membranes described above. […] The filters were rinsed with approximately 600 μl of binding buffer containing 0.5 M NaCl, dried, and the amount of bound radioactivity was determined by scintillation counting.

In test [3] the test system is other G protein-coupled receptors and ion channels. Briefly: Selectivity on other G protein-coupled receptors and ion channels. The note with it: assayed on other G protein-coupled receptors and ion channels; comparison in words.
[4] abbreviates: Cavia porcellus, Neutrophil, female Hartley guinea pigs, MPO at 5 hours.

For `CC1(C)CN(CC/C=C2/c3cc(C(=O)O)ccc3OCc3ncccc32)CCC1(O)c1ccc(Cl)cc1` (racemic) [Example 3, racemic-5-{3-[4-(4-Chloro-phenyl)-4-hydroxy-3,3-dimethyl-piperidin-1-yl]-propylidene}-5,11-dihydro-10-oxa-1-aza-dibenzo[a,d]cycloheptene-7-carboxylic acid], the inhibition at 2.5 mg/kg in test [1] (Cavia porcellus, Neutrophil, at 2.5 mg/kg oral, female Hartley guinea pigs, intradermal murine MIP-1α, MPO at 5 hours, read-out: Efficacy: Guinea Pig Neutrophil Recruitment, % inhibition) came to 99%. For the same compound, the “oral bioavailability and efficacy in comparison to the Reference Example” value in test [1] is “greater oral bioavailability and efficacy”. The Ki in test [2] was 3 nM. Besides, the “selectivity compared to structurally related compounds” value in test [3] is given as “greater selectivity”.

In the case of `CC1(C)CN(CCC=C2c3cc(C(=O)O)ccc3OCc3ncccc32)CC[C@]1(O)c1ccc(Cl)cc1` [Example 1, (S)-5-{3-[4-(4-Chloro-phenyl)-4-hydroxy-3,3-dimethyl-piperidin-1-yl]-propylidene}-5,11-dihydro-10-oxa-1-aza-dibenzo[a,d]cycloheptene-7-carboxylic acid], the ED50 in test [1] (setting [4]) came to 0.12 mg/kg. Further, the “oral bioavailability and efficacy in comparison to the Reference Example” value in test [1] was “greater oral bioavailability and efficacy”. In test [2], the Ki was determined as 2.3 nM. Besides, the “selectivity compared to structurally related compounds” value in test [3] is “greater selectivity”.

For `CC1(C)CN(CCC=C2c3cc(C(=O)O)ccc3OCc3ncccc32)CC[C@@]1(O)c1ccc(Cl)cc1` [Example 2, (R)-5-{3-[4-(4-Chloro-phenyl)-4-hydroxy-3,3-dimethyl-piperidin-1-yl]-propylidene}-5,11-dihydro-10-oxa-1-aza-dibenzo[a,d]cycloheptene-7-carboxylic acid], the Ki in test [2] was over 1000 nM.

As for `O=C(O)c1ccc2c(c1)/C(=C/CCN1CCC(O)(c3ccc(Cl)cc3)CC1)c1cccnc1CO2` [Reference Example, reference compound], the ED50 in test [1] (setting [4]) is 3.6 mg/kg. Besides, the Ki in test [2] was 7.8 nM.
